Reference: patent US9629894B2, “Magnesium-containing oxytocin formulations and methods of use” (Trigemina, Inc., priority 2015, dated 2017)

Assays:
[1] = test system: rat model of facial thermal nociception; test: Rat model of facial thermal nociception: cheek withdrawal latency to radiant heat after nasal administration; format: in vivo; details: for analgesic effect (elevation in latency to withdrawal): 15-300 min
Protocol: The heat from a projector lamp was focused on the pre-shaved cheek of rats and the intensity was varied to obtain a withdrawal response with a latency of between 6.5 and 8.5 seconds. The intensity applied to achieve such latencies was recorded for each animal. Once stable/acceptable baseline values were obtained, the average latencies for each rat were calculated. After baseline cheek withdrawal latencies were determined for all rats, each rat received a single nasal administration of either normal saline, 15% magnesium chloride in water, or 1% magnesium lactate in water according to the method developed by Frey (Thorne, et al. Neuroscience., 127: 481-496 (2004)). Briefly, rats (under urethane anesthesia) were placed in a supine position with a rolled pad (2×2 gauze) inserted under the dorsal neck to extend the head back toward the supporting surface. The upper surface of the neck was kept horizontal throughout the dosing procedure to maintain the drug solution in the nasal cavity and minimize dripping down the nasopharynx. A 6 μL drop of the respective drug solution was delivered off the tip of a small pipette and presented to the nares on the left side of the rat while occluding the opposite nares. One drop was administered every 2 minutes, alternating between each nares (thus amounting to a four minute interval between doses to the same nares). Each nostril received 4 drops, totaling a combined volume of 48 μL (8 drops of 6 μL each). Drug solutions were coded in order to keep the experimenter blinded as to the substances delivered. Left cheek withdrawal latencies in response to radiant heat stimulation were then measured over the next 3 hours. Withdrawal latencies were measured prior to nasal administration and at 1, 2, and 3 hours post-treatment.
(§1) One of 4 concentrations of dibasic magnesium citrate (1:1 Mg/citrate) was applied to rats and the effects of these applications on responses to noxious thermal stimulation of the face were assessed as described above. Each rat received a single nasal administration of 3, 6, 10, or 12% magnesium citrate in water (6 rats/group) according to the method described above. Left cheek withdrawal latencies in response to radiant heat stimulation were then measured over the following 300 minutes. Withdrawal latencies were measured prior to nasal administration and at 15, 30, 45, 60, 120, 180, 240, and 300 min post-treatment.
as §1, with “3 doses” for “4 concentrations”, “oxytocin in buffered saline” for “dibasic magnesium citrate (1:1 Mg/citrate)”, “1, 4,” for “3, 6, 10,”, “8 μg oxytocin” for “12% magnesium citrate”, “aqueous solution” for “water”
Aqueous solutions containing a combination of magnesium citrate at one of 3 concentrations with oxytocin at one of 3 doses were applied nasally in rats and changes in withdrawal response latency were measured as above. Each rat received a single nasal administration of 1, 4, or 8 μg of oxytocin in aqueous solution containing 3, 6, or 12% magnesium citrate according to the method described above. Left cheek withdrawal latencies in response to radiant heat stimulation were then measured over the following 300 minutes. Withdrawal latencies were measured prior to nasal administration and at 15, 30, 45, 60, 120, 180, 240, and 300 min post-treatment.
Difference scores were generated for each time point after dosing by comparing the respective withdrawal response latency to pre-dosing (baseline) values.

[2] = test system: head, neck and shoulder pain; test: Patient with chronic tension-type headache with head, neck and shoulder pain, oxytocin nasal sprays; format: in vivo, human
From the text: A patient with chronic tension-type headache reported having intense pain in their head, neck and shoulders. The patient took 4 sprays of 7.5 IU/spray oxytocin for a dose of 30 units, at which point their headache pain was gone, but the neck and shoulder pain remained. […] Thus, a higher dose was necessary to affect neck and shoulder pain than was necessary to inhibit head pain in the same patient.

[3] = test system: rat paw inflammation model; test: Rat paw inflammation model (complete Freund's adjuvant in forepaw), force withdrawal threshold to mechanical stimulation; format: in vivo; details: nasal, FIG. 8
Protocol: The analgesic effect of nasally administered oxytocin on cervical nerve-associated inflammatory pain was assessed in a rat paw inflammation model (Martin et al., Pain 1999, 82:199-205). Oxytocin was nasally administered at one of three doses (193, 385 or 768 micrograms in 48 microliters) and force withdrawal thresholds in grams were determined following mechanical stimulation of the inflamed area (forepaw), at regular intervals over the next three hours, and compared against those of vehicle (phosphate buffered saline) treated rats. Injection of complete Freund's adjuvant into the left forepaw of rats produced a robust inflammation of that paw as well as a substantial decrease in the force necessary to elicit a withdrawal response (mechanical allodynia).

[4] = 4 sprays of 7.5 IU/spray oxytocin, dose of 30 units

CC(O)C(=O)[O-].CC(O)C(=O)[O-].[Mg+2] (centres unmarked) [magnesium lactate]
analgesic effect (withdrawal latency) ([1]; 1% magnesium lactate in water, nasal, rats): mild analgesic effect
latencies at the 2 and 3 hour time points ([1]; 1% magnesium lactate in water, nasal, rats, 2 and 3 hours): still substantially elevated
raising response latencies (withdrawal latency to noxious heat) ([1]; 1% magnesium lactate in water, single nasal administration 48 μL, rats): approximately 1.5 s

[Cl-].[Cl-].[Mg+2] [magnesium chloride]
analgesia at 2 and 3 hours after dosing ([1]; 15% magnesium chloride in water, nasal, 2 and 3 hours): analgesia continuing
analgesic effect compared to nasal saline treated rats ([1]; 15% magnesium chloride in water, nasal, 1 hour): strong analgesic effect

magnesium citrate
analgesic effect (elevation in latency to withdrawal) ([1]; 3, 6, 10 or 12% magnesium citrate in water, nasal, FIG. 2): clear dose-dependent analgesic effect

CC[C@H](C)[C@@H]1NC(=O)[C@H](Cc2ccc(O)cc2)NC(=O)[C@@H](N)CSSC[C@@H](C(=O)N2CCC[C@H]2C(=O)N[C@@H](CC(C)C)C(=O)NCC(N)=O)NC(=O)[C@H](CC(N)=O)NC(=O)[C@H](CCC(N)=O)NC1=O [oxytocin, Cys-Tyr-Ile-Gln-Asn-Cys-Pro-Leu-Gly]
withdrawal latency ([1]; 1 μg oxytocin, nasal): no increase
analgesic effect (elevation in latency to withdrawal) ([1]; 1, 4 or 8 μg oxytocin in aqueous solution, nasal, FIG. 3): clear dose-dependent analgesic effect
latency to withdrawal in response to noxious cheek heating ([1]; 4 and 8 μg oxytocin, nasal): robust increase in latency to withdrawal
headache pain [2, 4]: gone
neck and shoulder pain [2, 4]: remained
neck and shoulder pain ([2]; additional 8-10 sprays, or a total of 60-75 IU): receded and ceased
reversal of the mechanical allodynia resulting from inflammation ([3]; higher 2 doses, 385 or 768 micrograms in 48 microliters): statistically significant partial reversal
increasing pain thresholds (force withdrawal threshold) ([3]; lowest dose, 193 micrograms in 48 microliters): ineffective
